Measured values taken from ChEMBL document CHEMBL5038672, “Conversion of a PROTAC Mutant Huntingtin Degrader into Small-Molecule Hydrophobic Tags Focusing on Drug-like Properties” (ACS Med Chem Lett, 2022).
The source made the active and inactive calls. The rule behind the calls is not given here.

Legend:
[1] = Ratio of drug concentration in brain to plasma in C57BL/6J mouse at 0.1 to 0.7 mg/kg, iv measured after 4 hrs; format: ADME, organism-based; settings: brain and plasma, dose 0.1-0.7 mg/kg
[2] = Apparent permeability across basolateral to apical side in human Caco-2 cells at 10 uM; format: ADME, cell-based; settings: for Papp B→A at 10 µM: Caco-2
[3] = Efflux ratio of apparent permeability across basolateral to apical side over apical to basolateral side in human Caco-2 cells at 10 uM; format: ADME, cell-based; settings: for efflux ratio at 10 µM: Caco-2
[4] = Apparent permeability across apical to basolateral side in human Caco-2 cells at 10 uM; format: ADME, cell-based; settings: for Papp A→B at 10 µM: Caco-2
[5] = test system: HeLa; test: Induction of EGFP fused Htt Q145 mutant exon 1 (unknown origin) degradation expressed in human HeLa cells assessed as HSP70/CHIP recruitment based proteosome mediated mHtt exon 1-Q145 degradation at higher concentration measured after 24 hrs by Western blot analysis; format: cell-based
[6] = test system: HeLa; test: Induction of EGFP fused Htt Q145 mutant exon 1 (unknown origin) degradation expressed in human HeLa cells assessed as HSP70/CHIP recruitment based proteosome mediated mHtt exon 1-Q145 degradation at 10 uM measured after 24 hrs by Western blot analysis; format: cell-based
[7] = test system: HeLa; test: Induction of EGFP fused Htt Q145 mutant exon 1 (unknown origin) degradation expressed in human HeLa cells assessed as HSP70/CHIP recruitment based proteosome mediated mHtt exon 1-Q145 degradation at 10 uM measured after 24 hrs by Western blot analysis in the presence of bortezomib; format: cell-based
[8] = test system: HeLa; test: Induction of EGFP fused Htt Q23 mutant exon 1 (unknown origin) degradation expressed in human HeLa cells assessed as HSP70/CHIP recruitment based proteosome mediated mHtt exon 1-Q23 degradation at 1 to 10 uM measured after 48 hrs by Western blot analysis; format: cell-based; settings: dose 1-10 µM
[9] = test system: HeLa; test: Induction of EGFP fused Htt Q145 mutant exon 1 (unknown origin) degradation expressed in human HeLa cells assessed as HSP70/CHIP recruitment based proteosome mediated mHtt exon 1-Q145 degradation at 10 uM measured after 24 to 48 hrs by Western blot analysis; format: cell-based; settings: time 24-48 hrs
[10] = test system: HeLa; test: Induction of EGFP fused Htt Q145 mutant exon 1 (unknown origin) degradation expressed in human HeLa cells assessed as HSP70/CHIP recruitment based proteosome mediated decrease in aggregate foci at 10 uM incubated for 24 hrs by Hoechst33342 staining based fluorescence microscopic analysis; format: cell-based; set-up: scale not given: the % may be the effect or the level left
[11] = test system: HeLa; test: Induction of EGFP fused Htt Q145 mutant exon 1 (unknown origin) degradation expressed in human HeLa cells assessed as HSP70/CHIP recruitment based proteosome mediated mHtt exon 1-Q145 degradation at 5 uM measured after 24 hrs by Western blot analysis; format: cell-based
[12] = test system: Huntingtin (Homo sapiens), P42858 [UNDEFINED MUTATION]; test: Induction of mutant Htt (unknown origin) degradation expressed in human fibroblasts cells assessed as HSP70/CHIP recruitment based proteosome mediated mHtt degradation by western blot analysis; format: cell-based; settings: Fibroblast
Sequence of Huntingtin (Homo sapiens), P42858 [UNDEFINED MUTATION] (P42858 whole entry, looked up, change not shown, the tested form may be a part): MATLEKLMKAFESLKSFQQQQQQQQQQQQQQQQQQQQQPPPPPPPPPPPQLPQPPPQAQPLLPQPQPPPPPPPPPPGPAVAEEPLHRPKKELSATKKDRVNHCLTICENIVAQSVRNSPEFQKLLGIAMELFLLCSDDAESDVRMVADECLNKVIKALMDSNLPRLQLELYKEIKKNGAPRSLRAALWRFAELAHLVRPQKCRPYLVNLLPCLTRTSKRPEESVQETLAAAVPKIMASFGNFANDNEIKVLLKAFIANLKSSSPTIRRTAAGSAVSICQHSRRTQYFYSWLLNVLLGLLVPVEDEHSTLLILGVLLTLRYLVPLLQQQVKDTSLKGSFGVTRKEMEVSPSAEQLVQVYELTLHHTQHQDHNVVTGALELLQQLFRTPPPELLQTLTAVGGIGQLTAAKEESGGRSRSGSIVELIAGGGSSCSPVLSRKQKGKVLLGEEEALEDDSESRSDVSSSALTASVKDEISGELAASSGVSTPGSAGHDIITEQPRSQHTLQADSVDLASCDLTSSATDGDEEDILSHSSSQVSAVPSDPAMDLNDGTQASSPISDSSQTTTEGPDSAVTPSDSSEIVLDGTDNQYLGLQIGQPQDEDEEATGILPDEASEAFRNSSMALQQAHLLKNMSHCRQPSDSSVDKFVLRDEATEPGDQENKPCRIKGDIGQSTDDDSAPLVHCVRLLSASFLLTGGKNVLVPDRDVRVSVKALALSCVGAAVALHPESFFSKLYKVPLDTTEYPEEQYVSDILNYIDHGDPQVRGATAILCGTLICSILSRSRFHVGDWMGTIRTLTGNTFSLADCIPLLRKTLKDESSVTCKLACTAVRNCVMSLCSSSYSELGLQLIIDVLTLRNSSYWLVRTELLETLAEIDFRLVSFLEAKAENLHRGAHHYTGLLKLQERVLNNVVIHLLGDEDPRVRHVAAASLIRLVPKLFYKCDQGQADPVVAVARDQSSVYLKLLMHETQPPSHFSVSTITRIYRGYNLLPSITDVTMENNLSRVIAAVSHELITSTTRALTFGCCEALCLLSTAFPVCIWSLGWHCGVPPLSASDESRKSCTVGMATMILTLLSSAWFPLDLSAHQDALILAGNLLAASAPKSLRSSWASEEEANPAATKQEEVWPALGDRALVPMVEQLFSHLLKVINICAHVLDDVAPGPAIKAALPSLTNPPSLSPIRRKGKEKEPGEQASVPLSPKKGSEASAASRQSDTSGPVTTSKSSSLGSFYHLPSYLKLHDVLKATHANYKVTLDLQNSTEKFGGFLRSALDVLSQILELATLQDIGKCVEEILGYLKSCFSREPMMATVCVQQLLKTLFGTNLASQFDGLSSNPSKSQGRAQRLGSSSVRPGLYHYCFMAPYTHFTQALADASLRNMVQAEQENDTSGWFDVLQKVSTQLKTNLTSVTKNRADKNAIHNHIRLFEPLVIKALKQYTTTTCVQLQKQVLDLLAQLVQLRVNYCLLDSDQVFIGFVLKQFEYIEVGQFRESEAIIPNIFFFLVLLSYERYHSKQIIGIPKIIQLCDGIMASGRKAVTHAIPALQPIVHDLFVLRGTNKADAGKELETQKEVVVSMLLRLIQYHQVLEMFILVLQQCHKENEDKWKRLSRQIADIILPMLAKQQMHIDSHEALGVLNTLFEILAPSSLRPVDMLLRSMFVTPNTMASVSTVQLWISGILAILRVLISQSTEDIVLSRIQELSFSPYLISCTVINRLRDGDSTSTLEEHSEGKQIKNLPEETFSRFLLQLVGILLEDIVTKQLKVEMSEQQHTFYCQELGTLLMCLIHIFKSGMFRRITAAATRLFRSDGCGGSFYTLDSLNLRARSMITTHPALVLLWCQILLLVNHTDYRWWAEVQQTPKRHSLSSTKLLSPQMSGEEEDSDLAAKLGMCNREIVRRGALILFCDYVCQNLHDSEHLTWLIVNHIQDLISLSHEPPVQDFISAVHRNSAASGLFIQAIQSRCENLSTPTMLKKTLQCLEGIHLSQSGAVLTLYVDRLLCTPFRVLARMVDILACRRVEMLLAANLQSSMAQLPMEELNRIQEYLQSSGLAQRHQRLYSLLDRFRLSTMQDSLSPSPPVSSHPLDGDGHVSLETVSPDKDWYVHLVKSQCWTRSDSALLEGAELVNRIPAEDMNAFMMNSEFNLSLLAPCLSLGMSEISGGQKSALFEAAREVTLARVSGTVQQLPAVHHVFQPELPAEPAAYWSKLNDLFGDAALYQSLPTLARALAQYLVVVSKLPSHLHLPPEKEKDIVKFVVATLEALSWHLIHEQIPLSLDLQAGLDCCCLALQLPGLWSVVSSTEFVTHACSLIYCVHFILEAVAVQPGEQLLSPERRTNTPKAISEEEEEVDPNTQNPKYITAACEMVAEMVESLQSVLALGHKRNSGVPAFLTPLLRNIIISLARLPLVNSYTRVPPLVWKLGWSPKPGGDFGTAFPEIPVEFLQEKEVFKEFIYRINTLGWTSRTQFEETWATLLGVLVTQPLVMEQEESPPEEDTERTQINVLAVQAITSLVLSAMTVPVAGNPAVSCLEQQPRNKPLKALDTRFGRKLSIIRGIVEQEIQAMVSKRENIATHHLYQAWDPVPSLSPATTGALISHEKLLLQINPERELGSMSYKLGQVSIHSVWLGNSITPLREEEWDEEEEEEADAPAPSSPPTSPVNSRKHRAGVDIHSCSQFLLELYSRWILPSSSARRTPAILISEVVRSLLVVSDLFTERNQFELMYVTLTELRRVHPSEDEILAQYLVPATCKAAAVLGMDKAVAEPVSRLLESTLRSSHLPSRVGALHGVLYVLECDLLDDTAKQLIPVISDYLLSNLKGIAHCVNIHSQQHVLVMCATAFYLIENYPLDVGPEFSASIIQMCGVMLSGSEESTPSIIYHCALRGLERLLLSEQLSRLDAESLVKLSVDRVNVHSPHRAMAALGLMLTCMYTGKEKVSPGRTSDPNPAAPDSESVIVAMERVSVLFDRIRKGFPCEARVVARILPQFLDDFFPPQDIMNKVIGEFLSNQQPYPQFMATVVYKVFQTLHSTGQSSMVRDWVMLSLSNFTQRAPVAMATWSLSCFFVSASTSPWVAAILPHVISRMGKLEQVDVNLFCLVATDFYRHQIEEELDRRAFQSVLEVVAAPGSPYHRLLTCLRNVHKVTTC

[13] = test system: HeLa; test: Induction of EGFP fused Htt Q145 mutant exon 1 (unknown origin) degradation expressed in human HeLa cells assessed as HSP70/CHIP recruitment based proteosome mediated mHtt exon 1-Q145 degradation at 10 uM preincubated with geldanamycin for 6 hrs and measured after 24 hrs by Western blot analysis; format: cell-based

CN(C)c1ccc(/N=N/c2nc3ccc(OCCOCCOC45CC6CC(CC(C6)C4)C5)cc3s2)cc1
Kp at 4 h [1]: 4.89 | Papp B→A at 10 µM [2]: 4.71 ×10⁻⁶ cm/s

CCCCCC(CCCCC)OCCOCCOCCOCCOc1ccc2nc(/N=N/c3ccc(N(C)C)cc3)sc2c1
Ratio ([3]; caco-2, 10 µM): 0.241 | Papp ([4]; caco-2, 10 µM): 2.46 10^-6 cm/s | Papp ([2]; caco-2, 10 µM): 0.241 10^-6 cm/s | Activity [5]: Active

CN(C)c1ccc(/N=N/c2nc3ccc(O)cc3s2)cc1
Activity [6]: inactive

CN(C)c1ccc(/N=N/c2nc3ccc(OCCOCCOCCOCCOC45CC6CC(CC(C6)C4)C5)cc3s2)cc1
efflux ratio at 10 µM [3]: 1.2 | Papp A→B at 10 µM [4]: 0.098 ×10⁻⁶ cm/s | Activity [7]: inactive | Activity [8]: inactive | Activity [9]: Active | Activity [10]: 60% | Papp B→A at 10 µM [2]: 0.118 ×10⁻⁶ cm/s | Activity [11]: inactive | Activity [12]: Dose-Dependent Effect | Activity [13]: Active

CN(C)c1ccc(/N=N/c2nc3ccc(OCCOCCOCCOCCOC(c4ccccc4)c4ccccc4)cc3s2)cc1
Activity [5]: Active

CC(C)C[C@H](NC(=O)[C@@H](O)[C@H](N)Cc1ccccc1)C(=O)NCCOCCOCCOc1ccc2nc(/N=N/c3ccc(N(C)C)cc3)sc2c1
efflux ratio at 10 µM [3]: 0.19 | Papp A→B at 10 µM [4]: 1.03 ×10⁻⁶ cm/s | Papp B→A at 10 µM [2]: 0.196 ×10⁻⁶ cm/s

OCCOCCOCCOCCOC12CC3CC(CC(C3)C1)C2
Activity [6]: inactive

CN(C)c1ccc(/N=N/c2nc3ccc(OCCOCCOCCOCCOc4cccc5ccccc45)cc3s2)cc1
Activity [5]: Active

CN(C)c1ccc(/N=N/c2nc3ccc(OCCOCCOCCOCCOC45CC6CC7C8CC(CC74)CC5C8C6)cc3s2)cc1
efflux ratio at 10 µM [3]: 0.235 | Kp at 4 h [1]: 0.13 | Papp A→B at 10 µM [4]: 5.32 ×10⁻⁶ cm/s | Papp B→A at 10 µM [2]: 1.25 ×10⁻⁶ cm/s | Activity [11]: 60%
